Earlier results on three compounds are cited in patent US20230085607A1, “IVERMECTIN COMPOSITIONS FOR TREATMENT OF COVID-19” (priority 2021, published 2023).

Where two headings read alike, the source gives them in different places.

The subject of series [1] is mice challenged with endotoxin (LPS O111:B4) or live Escherichia coli. As to conditions: for concentration of IL-1 α: controls 1187.0±278.64.
Series [2] relates to rats with polymicrobial sepsis (CL2P). Particulars: 10 mg/kg intraperitoneally at 1 and 6 h after CL2P and every 12 h.
Series [3] concerns lipopolysaccharide-activated macrophages.
Series [4] deals with mice with LPS-induced ARDS.
For series [5], the system named is mice with lethal endotoxemia or lethal sepsis.
Series [6] concerns mice with polymicrobial sepsis (CL2P). As to conditions: 10 mg/kg intraperitoneally, monitored 72 h after CL2P.
The test system of series [7] is rats subjected to myocardial ischemia and reperfusion. Particulars: 10 mg/kg intravenously then 10 mg/kg/h infusion.
The test system of series [8] is mice with experimental colitis.
Series [9] relates to mice with LPS-induced ARDS. The source holds these as a separate data set.
The subject of series [10] is LPS-challenged macrophages. Particulars: 0 to 50 μM, 6 h pre-incubation, LPS 24 h.
Series [11] has as its system LPS-stimulated primary peritoneal macrophages.
The mark [12] stands for this setting: 50 and 100 mg/kg/day, compared with MD group.
The mark [13] stands for this setting: 50 mg/kg, LPS 5 mg/kg 3 days later.

Take `CC1=CC(=O)C(C(C)C)=CC1=O` [thymoquinone]: the lipopolysaccharide-induced inflammatory reactions entry in the series on nitric oxide is given as “suppressed effectively”. In the series with nitric oxide (lipopolysaccharide-induced), the “concentration of nitric oxide” value is on record as “reduced significantly”. For the same compound, the “concentration of IL-1 α” value in [1] (0.75 mg/kg dose) is 310.8 ± 70.93 pg/mL. Further, the IL-10 levels in series [1] (0.75 mg/kg, controls 5505.2±333.96) is 2885.0 ± 553.98 pg/mL. In series [1] (1 mg/kg group), the “concentration of IL-1 α” value was 428.3 ± 71.32 pg/mL. The “levels of IL-2” value in series [1] (P=0.0851) was “relatively lower”. Also, in [1] (P=0.1817), the “levels of TNF-α” value is given as “relatively lower”. Further, in series [1] (mice, sepsis), the mortality reduction is reported as 80-90%; the “renal and hepatic biomarker profiles” value is “improved”.

Consider epigallocatechin-3-gallate [EGCG], for which the “hypotension (mean arterial blood pressure)” value in [2] is recorded as “significantly improved”. Besides, in series [3], the “disappearance of inhibitor kappaB from cytosolic fraction” value was “blocked”. Moreover, the NO production entry in [3] (cells cotreated with EGCG and LPS) is “Inhibition”. Also, the “activation of nuclear factor-kappaB” value in series [3] (electrophoretic mobility shift assay) is recorded as “blocked”. In series [4] (10 mg/kg ip), the “changes in blood gases” value is listed as “decreased”; the “expression of IκB-α” value is recorded as “increased”; the “expression of TLR-4, MyD88, TRIF and p-p65 in the lung tissue” value is “alleviated”; the “expression of TNF-α, IL-1β and IL-6 in the lung, serum and bronchoalveolar lavage fluid” value is “significantly decreased”. For the same compound, in [4] (10 mg/kg ip), the “expression of p65” value is on record as “no influence”, the histological lesions result was “reduced”, the “myeloperoxidase (MPO) activity” value is recorded as “reduced” and the wet-to-dry weight ratios entry was “reduced”. Moreover, the “LPS-induced ARDS” value in [4] (10 mg/kg ip 1 h before LPS 10 mg/kg ip) is given as “attenuated”. Further, the “rescue from lethal sepsis” value in series [5] (first dose 24 hours after cecal ligation and puncture) was “rescued”. For the same compound, the “protection against lethal endotoxemia” value in series [5] (intraperitoneal administration) is “protected”. Moreover, in series [5] (mouse, in vivo), the “systemic accumulation of HMGB1, IL-6 and KC” value is “attenuation”. The survival result in [6] was “significantly improved”. Besides, in [7], the myeloperoxidase activity result is “reduced”, the myocardial damage entry is “reduced”, the “plasma IL-6 levels” value is “decreased” and the “plasma creatine phosphokinase levels” value was “decreased”. In series [8] (setting [12]), the colonic tissue erosion result is “attenuation”, the “disease activity index (DAI)” value is recorded as “decreased” and the “spleen index (SI)” value was “decreased”. Besides, in series [8] (mouse, in vivo), the “HIF-1α and STATS protein expression in the colon” value is on record as “decreasing”; the “plasma levels of IL-10 and TGF-β1” value is “increasing”. Moreover, the “release of IL-6 and IL-17” value in series [8] (plasma) is “reduce”. The “TNF-α-induced nuclear factor-κB (NF-κB) activity” value with macrophage foam cells is “inhibition”. Besides, the “TNF-α-induced downregulation of ABCA1 and decrease in cholesterol efflux to apoA1” value with macrophage foam cells (pretreatment) is “attenuated”.

Consider `C[S+]([O-])CCCCN=C=S` (centres unmarked) [sulforaphane, 1-isothiocyanato-4-(methylsulfinyl)-butane], for which, in series [9] (50 mg/kg), the “inducible nitric oxide synthase (iNOS) activity” value is “significantly inhibited”, the “nuclear factor-κB protein expression” value is reported as “significantly decreased” and the “prostaglandin E2 (PGE2) production” value is listed as “significantly inhibited”. Further, in [9] (50 mg/kg, ELISA), the “serum levels of interleukin-6 (IL-6)” value is on record as “significantly decreased” and the “serum levels of tumor necrosis factor-α (TNF-α)” value was “significantly decreased”. Further, in series [9] (setting [13]), the “lactate dehydrogenase (LDH) activity” value is listed as “significantly decreased” and the “wet-to-dry ratio of the lungs” value was “significantly decreased”. Besides, in series [9] (50 mg/kg, western blot), the “cyclooxygenase-2 (COX-2) protein expression” value is on record as “significantly inhibited” and the “matrix metalloproteinase-9 (MMP-9) protein expression” value was “significantly inhibited”. The “Nrf2/antioxidant response element (ARE) pathway” value in series [9] (pre-treatment) is on record as “activated”. Also, in series [10], the “direct reaction with cytokines or NO” value is reported as “neither directly reacted”; the “expression of NO and cytokines” value is recorded as “able to prevent”. For the same compound, the HO-1 expression entry in [11] (LPS-stimulated Nrf2 (+/+) primary peritoneal macrophages) is listed as “significantly augmented”. The “LPS-stimulated mRNA expression, protein expression and production of TNF-alpha, IL-1beta, COX-2 and iNOS” value in series [11] (Nrf2 (+/+) primary peritoneal macrophages, pretreatment) is “potently inhibited”. In series [11] (Nrf2 (−/−) primary peritoneal macrophages), the anti-inflammatory effect result was “attenuated”.
